How the values were obtained:
Mus musculus [1] = experiment: Concentration required toTRH reduced mean latencies mimetics in mice after i.p. administration using the Morris water maze test; 0.003-3; assay type: functional, organism-based
Mus musculus [2] = experiment: Concentration required toTRH reduced mean latencies mimetics in mice after p.o. administration using the Morris water maze test; 0.003-3; assay type: functional, organism-based

## NC(=O)C[C@@H]1C[C@H](Cc2c[nH]cn2)C[C@H](C[C@@H]2CCC(=O)N2Cc2ccccc2)C1
Mus musculus [1]
  Concentration: 0.003 mg/kg
Mus musculus [2]
  Concentration: 0.003 mg/kg

— ChEMBL document CHEMBL1126848, “Concepts and progress in the development of peptide mimetics” (J Med Chem, 1993)
